Test results as given in the supplement of paper PMC10307832.

The cell lines below were run with CC1=NN=C(O1)C2=NN=C(C=C2)N3CCC(CC3)OC4=C(C=CC(=C4)F)Cl + O=C(CCCCCCC(=O)Nc1ccccc1)NO [Vorinostat] (partner 1 µM) (assay: relative viability (nuclei count vs DMSO), 5 days (fraction); higher = more cells survive). Settings: first compound 0.253 µM.
How it was run: (§1)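 One day after seeding in 1536-well plates, lung cancer cell lines were dosed by pin tool. Dosing was either single-drug or a fixed anchor-drug dose plus five library-drug doses (not always all listed) in √10 steps. After 5 days, nuclei were stained in one fix-and-stain step and counted on 4× images, and relative viability is the nuclei count of treated wells over that of vehicle wells, given as the median of duplicate plates.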

Cell Line	relative viability
NCI-H647	0.204
LCLC-97TM1	0.649
NCI-H2126	0.754
A-427	0.796
NCI-H650	0.451
RERF-LC-KJ	0.347
NCI-H1915	0.457
NCI-H661	0.802
NCI-H441	0.424
NCI-H1975	0.606
201T	0.474
NCI-H2023	0.357
HCC-827	0.382
NCI-H322M	0.812
NCI-H1437	0.492
PC-14	0.695
CAL-12T	0.524

Same assay, conditions: first compound 0.8 µM

Cell Line	relative viability
NCI-H647	0.136
NCI-H2126	0.651
A-427	0.689
NCI-H650	0.248
RERF-LC-KJ	0.467
NCI-H1915	0.219
NCI-H661	0.745
NCI-H441	0.384
NCI-H1975	0.643
201T	0.501
NCI-H2023	0.268
HCC-827	0.207
NCI-H322M	0.87
NCI-H1437	0.491
PC-14	0.543
CAL-12T	0.542

Same assay, conditions: first compound 2.53 µM

Cell Line	relative viability
NCI-H647	0.0766
LCLC-97TM1	0.522
NCI-H2126	0.642
A-427	0.791
NCI-H650	0.294
RERF-LC-KJ	0.453
NCI-H1915	0.401
NCI-H661	0.702
NCI-H441	0.302
NCI-H1975	0.629
201T	0.478
NCI-H2023	0.309
HCC-827	0.322
NCI-H322M	0.948
NCI-H1437	0.523
PC-14	0.714
CAL-12T	0.566

Same assay, conditions: first compound 8 µM

Cell Line	relative viability
NCI-H647	0.0534
LCLC-97TM1	0.573
NCI-H2126	0.631
A-427	0.703
NCI-H650	0.329
RERF-LC-KJ	0.493
NCI-H1915	0.325
NCI-H661	0.629
NCI-H441	0.382
NCI-H1975	0.619
201T	0.479
NCI-H2023	0.322
HCC-827	0.377
NCI-H322M	0.799
NCI-H1437	0.376
PC-14	0.567
CAL-12T	0.368

These cell lines were tested with CC1=NN=C(O1)C2=NN=C(C=C2)N3CCC(CC3)OC4=C(C=CC(=C4)F)Cl + CC(C)C[C@H](NC(=O)[C@H](Cc1ccccc1)NC(=O)c1cnccn1)B(O)O [Bortezomib] (partner 0.002 µM) in the same assay as above. Settings: first compound 0.253 µM.
How it was run: as §1

Cell Line	relative viability
NCI-H647	0.539
LCLC-97TM1	0.373
NCI-H2126	0.965
A-427	0.867
NCI-H650	0.787
RERF-LC-KJ	0.776
NCI-H1915	0.4
NCI-H661	0.695
NCI-H441	0.294
201T	0.484
NCI-H2023	0.49
HCC-827	0.514
NCI-H322M	1.05
NCI-H1437	0.31
PC-14	0.782
CAL-12T	1.01

Same assay, conditions: first compound 0.8 µM

Cell Line	relative viability
NCI-H647	0.742
LCLC-97TM1	0.211
NCI-H2126	0.907
NCI-H650	0.546
RERF-LC-KJ	0.9
NCI-H1915	0.31
NCI-H661	0.539
NCI-H441	0.362
NCI-H1975	0.367
201T	0.569
NCI-H2023	0.415
HCC-827	0.381
NCI-H322M	1.05
NCI-H1437	0.342
PC-14	0.655
CAL-12T	0.867

Same assay, conditions: first compound 2.53 µM

Cell Line	relative viability
NCI-H647	0.786
LCLC-97TM1	0.392
NCI-H2126	0.842
A-427	0.864
NCI-H650	0.716
RERF-LC-KJ	0.929
NCI-H1915	0.456
NCI-H661	0.801
NCI-H441	0.305
NCI-H1975	0.299
201T	0.592
NCI-H2023	0.505
HCC-827	0.524
NCI-H322M	1.21
NCI-H1437	0.424
PC-14	0.681
CAL-12T	0.86

Same assay, conditions: first compound 8 µM

Cell Line	relative viability
NCI-H647	0.606
LCLC-97TM1	0.362
NCI-H2126	0.837
A-427	0.802
NCI-H650	0.555
RERF-LC-KJ	0.969
NCI-H1915	0.323
NCI-H661	0.669
NCI-H441	0.234
NCI-H1975	0.306
201T	0.552
NCI-H2023	0.386
HCC-827	0.523
NCI-H322M	1.11
NCI-H1437	0.342
PC-14	0.741
CAL-12T	0.696

Each cell line was assayed with CC(C)C[C@@H](C(=O)N[C@H](C(=O)OC1CCCC1)c1ccccc1)[C@H](O)C(=O)NO [Tosedostat] + Nc1nc2[nH]cc(CCc3ccc(C(=O)N[C@@H](CCC(=O)O)C(=O)O)cc3)c2c(=O)[nH]1 [Pemetrexed] (partner 0.2 µM) in the same assay as above. Settings: first compound 0.02 µM.
How it was run: as §1

Cell Line	relative viability
NCI-H647	0.178
LCLC-97TM1	0.176
NCI-H2126	0.644
A-427	0.97
NCI-H650	1.01
RERF-LC-KJ	0.49
NCI-H1915	0.526
NCI-H661	0.959
NCI-H441	0.228
NCI-H1975	0.313
201T	0.336
NCI-H2023	0.22
HCC-827	0.24
NCI-H322M	0.61
NCI-H1437	0.297
PC-14	0.125
CAL-12T	1.19

Same assay, conditions: first compound 0.06325 µM

Cell Line	relative viability
NCI-H647	0.163
LCLC-97TM1	0.175
NCI-H2126	0.698
A-427	1.02
NCI-H650	0.846
RERF-LC-KJ	0.499
NCI-H1915	0.538
NCI-H661	0.9
NCI-H441	0.246
NCI-H1975	0.286
201T	0.335
NCI-H2023	0.23
HCC-827	0.265
NCI-H322M	0.628
NCI-H1437	0.353
PC-14	0.135
CAL-12T	1.3

Same assay, conditions: first compound 0.2 µM

Cell Line	relative viability
NCI-H647	0.167
LCLC-97TM1	0.192
NCI-H2126	0.708
A-427	0.936
NCI-H650	0.895
RERF-LC-KJ	0.51
NCI-H1915	0.645
NCI-H661	0.97
NCI-H441	0.275
NCI-H1975	0.325
201T	0.393
NCI-H2023	0.292
HCC-827	0.255
NCI-H322M	0.596
NCI-H1437	0.335
PC-14	0.157
CAL-12T	1.24

Same assay, conditions: first compound 0.6325 µM

Cell Line	relative viability
NCI-H647	0.196
LCLC-97TM1	0.203
NCI-H2126	0.705
A-427	0.946
NCI-H650	0.873
RERF-LC-KJ	0.486
NCI-H1915	0.726
NCI-H661	0.984
NCI-H441	0.266
NCI-H1975	0.271
201T	0.355
NCI-H2023	0.285
HCC-827	0.318
NCI-H322M	0.666
NCI-H1437	0.354
PC-14	0.124
CAL-12T	1.26

Same assay, conditions: first compound 2 µM

Cell Line	relative viability
NCI-H647	0.179
LCLC-97TM1	0.254
NCI-H2126	0.611
A-427	0.852
NCI-H650	0.804
RERF-LC-KJ	0.466
NCI-H1915	0.781
NCI-H661	0.994
NCI-H441	0.309
NCI-H1975	0.23
201T	0.307
NCI-H2023	0.212
HCC-827	0.353
NCI-H322M	0.652
NCI-H1437	0.391
PC-14	0.09
CAL-12T	1.02

The cell lines below were run with CC1=NN=C(O1)C2=NN=C(C=C2)N3CCC(CC3)OC4=C(C=CC(=C4)F)Cl + Cc1nc(Nc2ncc(C(=O)Nc3c(C)cccc3Cl)s2)cc(N2CCN(CCO)CC2)n1 [Dasatinib] (partner 0.075 µM) in the same assay as above. Settings: first compound 0.253 µM.
How it was run: as §1

Cell Line	relative viability
NCI-H647	0.196
LCLC-97TM1	0.395
NCI-H2126	0.526
A-427	0.654
NCI-H650	0.496
RERF-LC-KJ	0.553
NCI-H1915	0.324
NCI-H661	0.785
NCI-H441	0.566
201T	0.38
NCI-H2023	0.429
HCC-827	0.374
NCI-H322M	0.255
NCI-H1437	0.584
PC-14	0.264
CAL-12T	0.315

Same assay, conditions: first compound 0.8 µM

Cell Line	relative viability
NCI-H647	0.222
LCLC-97TM1	0.324
NCI-H2126	0.635
NCI-H650	0.436
RERF-LC-KJ	0.559
NCI-H1915	0.257
NCI-H661	0.608
NCI-H441	0.492
NCI-H1975	0.361
201T	0.45
NCI-H2023	0.442
HCC-827	0.235
NCI-H322M	0.315
NCI-H1437	0.279
PC-14	0.242
CAL-12T	0.34

Same assay, conditions: first compound 2.53 µM

Cell Line	relative viability
NCI-H647	0.207
LCLC-97TM1	0.345
NCI-H2126	0.616
A-427	0.669
NCI-H650	0.419
RERF-LC-KJ	0.619
NCI-H1915	0.311
NCI-H441	0.664
NCI-H1975	0.581
201T	0.409
NCI-H2023	0.476
HCC-827	0.357
NCI-H322M	0.268
NCI-H1437	0.418
PC-14	0.283
CAL-12T	0.374

Same assay, conditions: first compound 8 µM

Cell Line	relative viability
NCI-H647	0.178
LCLC-97TM1	0.347
NCI-H2126	0.611
A-427	0.63
NCI-H650	0.445
RERF-LC-KJ	0.581
NCI-H1915	0.285
NCI-H661	0.68
NCI-H441	0.493
NCI-H1975	0.546
201T	0.433
NCI-H2023	0.402
HCC-827	0.256
NCI-H322M	0.29
NCI-H1437	0.268
PC-14	0.231
CAL-12T	0.228
